How the values were obtained:
[1] = Solubility in water; type: physicochemical; conditions: result in words
Excerpt: Le composé est une poudre blanche, insoluble dans l'éther de pétrole, soluble dans l'éther, l'acé-tate d'éthyle et les alcools. Sa solubilité dans l'eau est inférieure à 0,1%.

[2] = system: souris; assay: Pretoxicity, i.p., 3 mice per dose; type: in vivo
Protocol: (§1) Le composé CRL 41 334, en suspension dans une solution de gomme arabique, a été administré par voie intrapéritonéale sous un volume de 20 ml/kg chez la souris (mâle, NMRI, C.E.R. Janvier) et de 5 ml/kg chez le rat (mâle, CD₁; SPRAGUE DAWLEY, Charles River).
I - PRETOXICITE ( 3 souris par dose)
(§2) Le CRL 41 055, en suspension dans une solution de gomme arabique, a été administré par voie intrapéritonéale sous un volume de 20 ml/kg chez la souris (mâle, NMRI, Evic Ceba).
Prétoxicite (3 souris par dose)
(§3) Le CRL 40 956, en suspension dans une solution de gomme arabique a été administré par voie intrapéritonéale sous un volume de 20 ml/kg chez la souris (mâle, NMRI, Evic Céba) et de 5 ml/kg chez le rat (mâle, CD₁, Sprague Dawley, Charles River).
Prétoxicité ( 3 souris par dose)

[3] = system: souris; assay: Global behaviour and reactivities, mouse, i.p.; type: in vivo
Protocol: as §1
(§4) Des lots de 3 animaux sont observés avant, puis 15 mn, 30 mn, 1h, 2h, 3h et 24 heures après l'administration du composé CRL 41 334.
as §2, §3
(§5) Des lots de 3 animaux sont observés avant, puis 15 mn, 30 mn, 1 h, 2 h, 3 h et 24 heures après l'administration de CRL 40 956.

[4] = system: rat; assay: Global behaviour and reactivities, rat, i.p.; type: in vivo; conditions: rat
Protocol: as §1, §4, §3, §5

[5] = system: rat; assay: Interaction with apomorphine, rat; type: in vivo; conditions: 64 et 256 mg/kg, apomorphine 0,5 mg/kg s.c.
Protocol: Le composé CRL 41 334 est administré à des lots de 6 rats une demi-heure avant l'injection sous-cutanée de 0,5 mg/kg d'apomorphine.
Le CRL 40 956 est administré à des lots de 6 rats une demi-heure avant l'injection sous cutanée de 0,5 mg/kg d'apomorphine.

[6] = system: souris; assay: Spontaneous motility (actimeter); type: in vivo; conditions: souris, half an hour before the actimeter
Protocol: Après avoir reçu le composé CRL 41 334, les souris sont placées en actimètre où leur motilité est enregistrée pendant 30 minutes.
Une demi-heure après avoir reçu le CRL 41 055, les souris (6 par dose, 12 témoins) sont placées en actimètre où leur motilité est enregistrée pendant 30 minutes.
Une demi-heure après avoir reçu le CRL 40 956, les souris (6 par dose, 12 témoins) sont placées en actimètre ou leur motilité est enregistrée pendant 30 minutes.

[7] = system: souris; assay: Intergroup aggressiveness; type: in vivo; conditions: 128 mg/kg
Protocol: Après avoir séjourné pendant 3 semaines dans chacune des moitiés d'une cage séparées par une cloison opaque, des groupes de 3 souris reçoivent le composé CRL 41 334. Une demi-heure plus tard, les deux groupes d'une même cage sont réunis par retrait de la cloison et on note le nombre de combats qui surviennent en 10 minutes. Le test est pratiqué pour moitié sur les souris habituelles (NMRI, C.E.R. Janvier) et pour moitié sur des souris NMRI (Iffa Credo).
Après avoir séjourné pendant 3 semaines dans chacune des moitiés d'une cage séparée par une cloison opaque, des groupes de 3 souris reçoivent le CRL 40 956. Une demi-heure plus tard, les deux groupes d'une même cage sont réunis par retrait de la cloison et on note le nombre de combats qui surviennent en 10 minutes.

[8] = system: souris; assay: Asphyxic anoxia (gallamine triethiodide); type: in vivo; conditions: 512 mg/kg, gallamine 32 mg/kg i.p.
Protocol: Des lots de 20 souris reçoivent le composé CRL 41 334 une demi-heure avant l'administration intrapéritonéale de 32 mg/kg de triiodoéthylate de gallamine.
Des lots de 10 souris reçoivent le CRL 40 956 une demi-heure avant l'administration intrapé-ritonéale de 32 mg/kg de triodoéthylate de Gallamine.

[9] = system: souris; assay: Interaction with barbital; type: in vivo; conditions: souris, 512 mg/kg, barbital 200 mg/kg i.p.
Protocol: Une demi-heure après l'administration du composé CRL 41 334, des lots de 20 souris reçoivent une injection intrapéritonéale de barbital ([…]).
Une demi-heure après l'administration du CRL 40 956 des lots de 10 souris reçoivent une injection intrapéritonéale de 200 mg/kg de barbital.

[10] = system: souris; assay: Behavioural despair (forced immersion); type: in vivo; conditions: souris, 512 mg/kg
Excerpt: Une demi-heure après avoir reçu le composé CRL 41 334, des lots de 6 souris (mâles, CD₁, Charles River) sont placés dans un bécher rempli d'eau sur une hauteur de 6 cm. On note la durée totale d'immobilité entre la 2ème et la 6ème minutes suivant l'immersion.
Une demi-heure après avoir reçu le CRL 40 956, des lots de 10 souris (mâles CD₁ Charles River) sont plongées dans une enceinte réduite remplie d'eau sur une hauteur de 6 cm. On note la durée totale d'immobilité entre la 2ème et la 6ème minute suivant l'immersion.

[11] = system: souris; assay: Motility reduced by habituation to the enclosure; type: in vivo; conditions: 32 et 128 mg/kg
Protocol: Après 18 heures de séjour dans les actimè-tres, les souris (6 par dose, 12 témoins) reçoivent le composé CRL 41 334. Elles sont aussitôt replacées dans leurs enceintes respectives et, une demi-heure plus tard, on enregistre leur motilité pendant 30 minutes.
Après 18 heures de séjour dans les actimètres, les souris (6 par dose, 12 émoins) reçoivent le CRL 41 055. Elles sontaussitôt replacées dans leurs enceintes respectives et, une demi-heure plus tard, on enregistre leur motilité pendant 30 minutes.

[12] = system: homme; assay: Therapeutic use in humans; type: in vivo; conditions: trois gélules de 50 mg par jour
[13] = system: souris femelles de souche OF₁; assay: Delayed hypersensitivity reaction to sheep red blood cells; type: in vivo; conditions: for Ind. Activité / % d'augmentation du coussinet (mm) m: voie orale; for % d'augmentation du coussinet (mm) m: trois jours avant immunisation
Excerpt: Selon la méthode de Miller, Lagrange et Mackaness ("Immunopotentiation with BCG II modulation of the response to sheep red blood cells", Journal of the National Cancer Institute 1973, 51, 5, 1669 - 1676).
Le composé à tester est administré par voie orale a des souris femelles de souche OF₁ trois jours avant immunisation.
Les résultats sont exprimés en pourcentage d'augmentation du coussinet plantaire.

[14] = system: rat; assay: Search for stereotyped movements, rat; type: in vivo; conditions: in vivo, 2 mg/kg
Excerpt: Des lots de 6 rats reçoivent une injection du composé CRL 41 334 ou d'amphétamine, puis sont immédiatement placés dans des boîtes de petites dimensions (20 x 10 x 10 cm) où leur comportement stéréotypeé est coté de 0 à 3 jusqu'à extinction de l'effet.

ON=CCSC(c1ccccc1)c1ccccc1 [CRL 40 956, 2-(benzhydrylthio)acétaldoxime]
solubilité dans l'eau [1]: Insoluble dans l'eau | symptômes ([2]; 256 mg/kg i.p.): mêmes symptômes | mortalité ([2]; 1024 et 512 mg/kg i.p.): pas de mortalité | symptômes ([2]; 1024 et 512 mg/kg i.p.): crampes abdominales, dyspnée | comportement et réactivités ([3]; souris, 512 mg/kg i.p.): sédation pendant 2 à 3 heures | comportement et réactivités ([3]; souris, 128, 32 et 8 mg/kg i.p.): pas de symptômes nets | comportement et réactivités ([4]; 64 mg/kg i.p.): sédation pendant 3 heures avec diminution | comportement et réactivités ([4]; 256 mg/kg i.p.): sédation pendant 3 heures | stéréotypies induites par l'apomorphine [5]: diminue très modérément l'intensité des stéréotypies | activité motrice spontanée ([6]; 512 mg/kg): diminue fortement l'activité motrice spontanée | nombre de combats [7]: diminue le nombre de combats | apparition des convulsions et de la mort [8]: retarde modérément l'apparition des convulsions et de la mort | durée du sommeil barbiturique [9]: diminue la durée du sommeil barbiturique | durée d'immobilité "de désespoir" [10]: diminue la durée d'immobilité

NC(=O)CSC(c1ccccc1)c1ccccc1 [CRL 41 055, 2-(benzhydrylthio)acétamide]
solubilité dans l'eau [1]: insoluble dans l'eau | symptômes ([2]; 64 mg/kg i.p., after 45 minutes, lasting more than 2 hours): excitation, stéréotypies (reniflements, redressements) | symptômes ([2]; 512 mg/kg i.p.): sédation, fréquence respiratoire diminuée, contractions abdominales | convulsions ([2]; 512 mg/kg i.p., 18 heures après l'injection): convulsions intermittentes présentes chez toutes les souris | mortalité ([2]; 512 mg/kg i.p., après 48 heures): 1/3 | symptômes ([2]; 1024 mg/kg i.p.): mêmes symptômes | mortalité ([2]; 128 et 256 mg/kg i.p.): Pas de mortalité | symptômes ([2]; 128 et 256 mg/kg i.p.): pendant 45 minutes sédation, fréquence respiratoire diminuée | comportement et réactivités ([3]; souris, 2 mg/kg i.p.): pas de modifications nettes | comportement et réactivités ([3]; souris, 128 mg/kg i.p.): sédation pendant 30 minutes faisant place à une excitation tardive | comportement et réactivités ([3]; souris, 8 et 32 mg/kg i.p.): excitation pendant 2 heures | motilité spontanée ([6]; 32 et 128 mg/kg): augmentation de motilité spontanée | activité motrice chez la souris habituée à son enceinte [11]: reprise nette de l'activité motrice | thérapeutique humaine comme antidépresseur [12]: s'est avéré utile

O=C(CSC(c1ccc(F)cc1)c1ccc(F)cc1)NO [CRL 41 335, acide 2-(4,4ʹ-difluorobenzhydrylthio)acétohydroxamique]
solubilité dans l'eau [1]: insoluble dans l'eau | Ind. Activité ([13]; Exp 1, 0,1 mg/kg): 1,29 | % d'augmentation du coussinet (mm) m ([13]; Exp 1, 0,1 mg/kg): 11,5% | Ind. Activité ([13]; Exp 1, 1 mg/kg): 0,94 | % d'augmentation du coussinet (mm) m ([13]; Exp 1, 1 mg/kg): 8,4% | Ind. Activité ([13]; Exp 1, 10 mg/kg): 1,00 | % d'augmentation du coussinet (mm) m ([13]; Exp 1, 10 mg/kg): 8,9% | Ind. Activité ([13]; Exp 1, 100 mg/kg): 0,77 | % d'augmentation du coussinet (mm) m ([13]; Exp 1, 100 mg/kg): 6,9% | action immunostimulante ([13]; overall statement in the text): dépourvu d'une telle action immostimulante

CC(N)Cc1ccccc1 (stereo not drawn) [amphétamine, reference compound]
durée des stéréotypies [14]: 270 min

Reference: EP0258134A1, “Therapeutical compositions containing benzhydryl thiomethane derivatives” (LABORATOIRE L. LAFON, priority 1986, dated 1988)
